# Reference: PubChem BioAssay (NCI)
#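 Results reflect a 48-hour exposure of cells in 96-well plates to compound at five concentrations. At the GI50, growth is halved. At the TGI there is no net growth.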
# Assays:
# Test in all cases: NCI tumour cell line growth inhibition, 48 h
# [1] = test system: A549 NSCLC
# [2] = test system: OVCAR-4 ovarian
# [3] = test system: K-562 leukemia
# [4] = test system: CAKI-1 renal
# [5] = test system: SR leukemia
# [6] = test system: CCRF-CEM leukemia
# [7] = test system: MALME-3M melanoma
# [8] = test system: HT29 colon
# [9] = test system: EKVX NSCLC
# [10] = test system: IGROV1 ovarian
SMILES,GI50 [1] [µM],TGI [1] [µM],GI50 [2] [µM],TGI [2] [µM],GI50 [3] [µM],TGI [3] [µM],GI50 [4] [µM],TGI [4] [µM],GI50 [5] [µM],TGI [5] [µM],GI50 [6] [µM],TGI [6] [µM],GI50 [7] [µM],TGI [7] [µM],GI50 [8] [µM],TGI [8] [µM],GI50 [9] [µM],TGI [9] [µM],GI50 [10] [µM],TGI [10] [µM]
CCc1nc2cc(/C=C/C(=O)NO)c(F)cc2c(=O)n1CCc1ccccc1,1.35,5.39,0.689,17.8,1.65,> 100,0.822,6.2,0.731,> 100,0.564,> 100,0.944,10.4,0.588,12.5,2.36,10.7,–,–
C=C(C)[C@@H]1CC[C@]2(C)[C@H](CC=C3[C@@H]4CC(C)(C)CC[C@]4(C(=O)OC)CC[C@]32C)[C@@]1(C)CC/C(N)=N/O,2.15,7.75,2.16,7.23,2.47,> 100,2.4,15.1,1.81,5.2,2.19,6.2,1.69,3.33,1.88,5.11,2.11,6.8,2.05,6.09
COc1cccc2c1C(=O)c1c(O)c3c(c(O)c1C2=O)C[C@@](O)(C(=O)COC(=O)c1cccnc1)C[C@@H]3OC1CC(N)C(O)C(C)O1 (some centres not stated),0.0774,0.533,0.28,3.48,0.15,2.75,0.705,6.25,0.0173,2.4,0.0574,1.19,0.115,0.353,0.199,1.53,–,–,0.121,3.79
C[C@]1(O)CC(=O)[C@]2(O)C3=C(C=C[C@]2(O)C1)C(=O)c1c(O)cccc1C3=O,16.3,38.6,1.44,2.79,0.706,5.28,1.5,2.85,0.635,4.95,0.342,3.33,0.492,1.84,3.26,> 100,11.6,23.8,–,–
COc1ncnc2c1ncn2C/C(Br)=C(\Br)CCl,10.8,25.9,1.61,3.02,3.29,10.9,1.87,3.87,2.73,12.2,2.73,13.5,1.49,3.21,1.63,3.71,16.3,29.9,1.77,4.86
COC(=O)/C=C\C1C(C(=O)OC)C2(C(=O)OC)CCC1(C(=O)OC)N2 (configuration not stated),–,39.9,–,34.5,–,53.2,–,6.82,–,16.7,–,21.8,–,15.8,–,45.7,–,> 60.2,–,> 58.1
C#Cc1cccc(N2C(=O)CC(=P(c3ccccc3)(c3ccccc3)c3ccccc3)C2=O)c1,–,> 100,–,> 100,–,> 100,–,> 100,–,> 100,–,> 100,–,> 100,–,> 100,–,> 100,–,–
CN1NC(c2ccccc2)=C(C#N)C(=O)CC1c1ccccc1Cl (configuration not stated),–,> 100,–,> 100,–,–,–,> 100,–,> 100,–,> 100,–,> 100,–,> 100,–,–,–,–
CC(C)NCCCNC1=C(Cl)C(=O)c2ccccc2C1=O,11.2,33.5,–,–,2.05,4.92,5.83,20.9,2.27,6.08,3.56,17.6,1.97,3.69,2.5,5.12,1.4,2.83,2.33,5.16
CC(=O)OC1C(O)COC(Oc2c(C)c3c4c(c2O)[C@@H](C)CC[C@@H]4[C@@H](C)C[C@H]3C=C(C)C)C1O (some centres not stated),16,40.3,16.8,47.1,10.3,30.2,16.9,32.2,3.87,19.1,7.42,27.4,15.3,30.1,–,–,–,–,28.9,> 100
CCN(CCc1ccc(F)cc1)c1ccc(CO)c(Cl)c1,9.36,24.4,2.23,15.3,4.21,25.7,4.23,17.2,13.1,42.5,15.6,47.3,16,31.1,11.3,27.3,–,–,0.824,7.11
CC(=O)OC1CC(C)c2c1ncnc2N1CCN(C(=O)OC(C)(C)C)CC1 (configuration not stated),44.2,> 100,63.6,> 100,37.8,> 100,63.8,> 100,21.6,63.7,32.9,> 100,35.5,> 100,37.1,88.5,–,–,92.5,> 100
CN(C)c1ccc2c(SCC(=O)OCC(=O)[C@@]3(O)CC[C@H]4[C@@H]5CCC6=CC(=O)C=C[C@]6(C)[C@H]5C(=O)C[C@@]43C)c3ccc(N(C)C)cc3nc2c1,–,> 100,–,> 72.1,–,> 70.4,–,60.8,–,4,–,–,–,> 100,–,25.4,–,> 81.2,–,> 100
Cc1cc2cc(Oc3ccnc(Nc4cccc(CS(=O)(=O)NCCN(C)C)c4)n3)ccc2[nH]1,12,25.5,9.11,22.3,–,–,3.31,16.6,1.59,4.95,3.36,11.3,2.96,10.5,2.96,10.6,12.2,26.7,4.51,18.9
